{"source": "patent US7691841B2", "about": "“Azetidine derivatives as CCR-3 receptor antagonist” (Novartis AG, priority 2004, dated 2010)", "molecular_target": "T1, human CCR-3 (Homo sapiens, UniProt P51677)", "T1 construct": "expressed in transfected cells; host or cells: rat basophil leukaemia (RBL-2H3) cells, membranes", "T1 sequence (P51677 1-355)": "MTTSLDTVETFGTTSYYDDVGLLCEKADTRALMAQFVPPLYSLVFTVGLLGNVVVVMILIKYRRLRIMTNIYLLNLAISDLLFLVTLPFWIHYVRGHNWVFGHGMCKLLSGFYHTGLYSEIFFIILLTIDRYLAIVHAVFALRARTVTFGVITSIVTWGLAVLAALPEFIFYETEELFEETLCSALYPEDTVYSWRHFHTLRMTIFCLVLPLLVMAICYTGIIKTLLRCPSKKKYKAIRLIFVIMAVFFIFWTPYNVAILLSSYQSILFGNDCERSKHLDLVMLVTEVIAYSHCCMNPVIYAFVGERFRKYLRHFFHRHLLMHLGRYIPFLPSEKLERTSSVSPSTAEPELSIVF", "assay": "binding of [125I]-human eotaxin to human CCR-3 (SPA assay)", "details": "membranes of RBL-2H3 cells stably expressing CCR3; 50 pM [125I]-human eotaxin; 4 hours at room temperature; read-out: IC50 (concentration of test compound at which 50% inhibition of eotaxin binding occurs)", "description": "Compounds of formula I and their pharmaceutically acceptable salts are useful as pharmaceuticals. In particular, they inhibit human chemokine receptor CCR-3. The effect of compounds of the formula I, i.e. agents of the invention, on the binding of human eotaxin to human CCR-3 is determined by the following assay:\nRecombinant cells expressing human CCR-3 are captured by wheatgerm agglutinin (WGA) polyvinyltoluidene (PVT) SPA beads (available from Marshal), through a specific interaction between the WGA and carbohydrate residues of glycoproteins on the surface of the cells. [^125I]-human eotaxin (available from Amersham) binds specifically to CCR-3 receptors bringing the [^125I]-human eotaxin in close proximity to the SPA beads. Emitted â-particles from the [^125I]-human eotaxin excite, by its proximity, the fluorophore in the beads and produce light.\nPreparation of Assay Buffer: 5.96 g HEPES and 7.0 g sodium chloride are dissolved in distilled water and 1 M aqueous CaCl2 (1 ml) and 1M aqueous MgCl2 (5 ml) are added. The pH is adjusted to 7.6 with NaOH and the solution made to a final volume of 1 l using distilled water. 5 g bovine serum albumin and 0.1 g sodium azide are then dissolved in the solution and the resulting buffer stored at 4° C. A COMPLETE™ protease inhibitor cocktail tablet (available from Boehringer) is added per 50 ml of the buffer on the day of use.\nPreparation of Homogenisation Buffer: Tris-base (2.42 g) is dissolved in distilled water, the pH of the solution is adjusted to 7.6 with hydrochloric acid and the solution is diluted with distilled water to a final volume of 1 l. The resulting buffer is stored at 4° C. A COMPLETE™ protease inhibitor cocktail tablet is added per 50 ml of the buffer on the day of use. […]\nThe assay is performed in a final volume of 250 μl per well of an OPTIPLATE™ microplate (ex Canberra Packard). […] The resulting scintillations are counted using a Canberra Packard TopCount, each well being counted for 1 minute. […]"}
{"smiles": "O=C(CNC(=O)c1ccc(Cl)cc1)NCC1CN(Cc2ccc(Cl)c(Cl)c2)C1", "note": "[Example 5]", "values": [{"measurement": "IC50", "value": 297, "unit": "nM"}]}
{"smiles": "Cc1cc(C(=O)NCC(=O)NCC2CN(Cc3ccc(Cl)c(Cl)c3)C2)c(C)n1Cc1ccncc1", "note": "[Example 7]", "values": [{"measurement": "IC50", "value": 420, "unit": "nM"}]}
{"smiles": "CCOc1ccc2nc(SCC(=O)NCC3CN(Cc4ccc(Cl)c(Cl)c4)C3)sc2c1", "note": "[Example 8, N-[1-(3,4-Dichloro-benzyl)-azetidin-3-yl-methyl]-2-(6-ethoxy-benzothiazol-2-ylsulfanyl)-acetamide]", "values": [{"measurement": "IC50", "value": 198, "unit": "nM"}]}
